The source of these data is patent US12630532B2, “Indole-substituted quinolines and their combination with Plk1 inhibitors for the treatment of cancer” (UNIVERSITY OF KENTUCKY RESEARCH FOUNDATION, priority 2021, dated 2026).

One data set relates to AMPK. Kind of data set: AMPK activation (western blotting, pAMPK/pACC) in LS174T cells. Format: cell-based. The procedure:
Western blotting were performed according to previous procedures (25). Cells were split into 12-well plates. After 24 hours, compounds at indicated final concentrations were added to each well for another 24 hours unless otherwise noted. DMSO was used as a control. Cells were lysed in the appropriate volume of lysis buffer: 50 mM HEPES, 100 mM NaCl, 2 mM EDTA, 1% (v/v) glycerol, 50 mM NaF, 1 mM Na3VO4, 1% (v/v) Triton X-100, with protease inhibitors. Cell lysates were centrifuged, and supernatants were mixed with 6× protein loading buffer and boiled. The obtained samples were analyzed with standard western blotting methods with indicated antibodies.
Background: Immunoblotting shows a protein as a band on a membrane.

The subject of data set [1] is LS174T colon cancer cell xenografts. Kind of data set: In vivo antineoplastic activity and gross toxicity in LS174T xenografts. The protocol: Mouse studies were carried out with approval from the Institutional Animal Care and Use Committee of the University of Kentucky (2020-3531). All methods were performed in accordance with the relevant guidelines and regulations according to protocols. […] After tumors were established, mice were randomized according to tumor volume and divided into groups for treatments (five mice in each group, two tumors on each mouse).
The in vivo evaluation of ISQ-1 and BI2536 followed the approved protocol. After tumors were established, ISQ-1 was formulated in a mixture of Tween-80 (5%), DMSO (10%), PEG400 (25%) and PBS (60%) and was intraperitoneally administered to the ISQ-1 group at a daily dose of 20 mg/kg mouse body weight. The first day of treatment was set as day 0. At days 0, 4, and 7, BI2536 dissolved in 0.1 N HCl and then diluted 5-fold using 0.9% NaCl was given via gavage to the B12536 group. Mice in combination therapy group were treated with both ISQ-1 and BI2536 following aforementioned dosing schedules. At day 11 treatment was ceased and mice were sacrificed. Tumors and mouse weights were measured, and tumor volumes were calculated as Length×width^2/2.
Major biological assays were performed at least twice. Data were shown as mean SEM. For the mice study, five mice with two tumors on the lower flanks of each mouse were used in each treatment group. Sizes of the two tumors from each mouse were averaged, standardized by the tumor size on day 0, and log-transformed. ANOVA with Tukey's HSD test was used to compare the tumor size at the end of the study (day 11) between the combination therapy of ISQ-1 and B12536 and each single compound as well as the control. The equal variance assumption of ANOVA was assessed by Bartlett's test. All statistical studies were overseen in collaboration with a statistician in the University of Kentucky's Markey Cancer Center.

Regarding `CN(C)c1ccc2cc(-c3cn(C)c4ccccc34)c(N)nc2c1` [ISQ-1, N^7,N^7-Dimethyl-3-(1-methyl-1H-indol-3-yl)quinoline-2,7-diamine], the AMPK activation entry in the data set on AMPK is “activated AMPK in a dose-dependent manner”. For the same compound, the “tumor growth of LS174T xenografts” value in data set [1] (nude mice, ISQ-1 20 mg/kg daily i.p., BI2536 30 mg/kg twice a week by gavage, day 11) is recorded as “inhibited tumor growth but did not induce tumor regression”. Also, in data set [1] (same dosing as efficacy study), the “gross toxicities on the basis of mouse weight measurements” value was “No gross toxicities”.
